Like-named read-outs stand apart in the source and are kept apart here.
Legend:
[1] = test system: BT-549; experiment: NCI-60 growth inhibition: BT-549 (Breast Cancer); assay type: cell-based, human; conditions: Homo sapiens
[2] = test system: CAKI-1; experiment: NCI-60 growth inhibition: CAKI-1 (Renal Cancer); assay type: cell-based, human; conditions: Homo sapiens
[3] = test system: MDA-MB-468; experiment: NCI-60 growth inhibition: MDA-MB-468 (Breast Cancer); assay type: cell-based, human; conditions: Homo sapiens; MDA-MB-468 (Breast Cancer); read-out: GI50
[4] = test system: NCI-H460; experiment: NCI-60 growth inhibition: NCI-H460 (Non-Small-Cell Lung Cancer); assay type: cell-based, human; conditions: Homo sapiens
[5] = test system: RXF 393; experiment: NCI-60 growth inhibition: RXF 393 (Renal Cancer); assay type: cell-based, human; conditions: Homo sapiens
[6] = test system: UO-31; experiment: NCI-60 growth inhibition: UO-31 (Renal Cancer); assay type: cell-based, human; conditions: Homo sapiens
[7] = test system: HS 578T; experiment: NCI-60 growth inhibition: HS 578T (Breast Cancer); assay type: cell-based, human; conditions: Homo sapiens
[8] = test system: MDA-MB-231/ATCC; experiment: NCI-60 growth inhibition: MDA-MB-231/ATCC (Breast Cancer); assay type: cell-based, human; conditions: Homo sapiens
[9] = test system: HCT-15; experiment: NCI-60 growth inhibition: HCT-15 (Colon Cancer); assay type: cell-based, human; conditions: Homo sapiens
[10] = test system: SK-MEL-5; experiment: NCI-60 growth inhibition: SK-MEL-5 (Melanoma); assay type: cell-based, human; conditions: Homo sapiens
[11] = test system: MCF7; experiment: NCI-60 growth inhibition: MCF7 (Breast Cancer); assay type: cell-based, human; conditions: Homo sapiens
[12] = test system: U251; experiment: NCI-60 growth inhibition: U251 (CNS Cancer); assay type: cell-based, human; conditions: Homo sapiens, U-251
[13] = test system: HCT-116; experiment: NCI-60 growth inhibition: HCT-116 (Colon Cancer); conditions: Homo sapiens, HCT-116
[14] = test system: T-47D; experiment: NCI-60 growth inhibition: T-47D (Breast Cancer); assay type: cell-based, human; conditions: Homo sapiens, T47D
[15] = test system: OVCAR-8; experiment: NCI-60 growth inhibition: OVCAR-8 (Ovarian Cancer); assay type: cell-based, human; conditions: Homo sapiens
[16] = test system: SK-MEL-28; experiment: NCI-60 growth inhibition: SK-MEL-28 (Melanoma); assay type: cell-based, human; conditions: Homo sapiens
[17] = test system: LOX IMVI; experiment: NCI-60 growth inhibition: LOX IMVI (Melanoma); assay type: cell-based, human; conditions: Homo sapiens
[18] = test system: RPMI-8226; experiment: NCI-60 growth inhibition: RPMI-8226 (Leukemia); assay type: cell-based, human; conditions: Homo sapiens
[19] = test system: MV4-11 cell line (myelomonocytic leukemia); conditions: MV4-11 cells, 24 h
[20] = test system: UACC-62; experiment: NCI-60 growth inhibition: UACC-62 (Melanoma); assay type: cell-based, human; conditions: Homo sapiens
[21] = test system: COLO 205; experiment: NCI-60 growth inhibition: COLO 205 (Colon Cancer); assay type: cell-based, human; conditions: Homo sapiens
[22] = test system: TK-10; experiment: NCI-60 growth inhibition: TK-10 (Renal Cancer); assay type: cell-based, human; conditions: Homo sapiens
[23] = test system: UACC-257; experiment: NCI-60 growth inhibition: UACC-257 (Melanoma); assay type: cell-based, human; conditions: Homo sapiens
[24] = test system: M14; experiment: NCI-60 growth inhibition: M14 (Melanoma); assay type: cell-based, human; conditions: Homo sapiens
[25] = test system: NCI-H23; experiment: NCI-60 growth inhibition: NCI-H23 (Non-Small-Cell Lung Cancer); assay type: cell-based, human; conditions: Homo sapiens
[26] = test system: MALME-3M; experiment: NCI-60 growth inhibition: MALME-3M (Melanoma); assay type: cell-based, human; conditions: Homo sapiens
[27] = test system: PC-3; experiment: NCI-60 growth inhibition: PC-3 (Prostate Cancer); assay type: cell-based, human; conditions: Homo sapiens
[28] = test system: EKVX; experiment: NCI-60 growth inhibition: EKVX (Non-Small-Cell Lung Cancer); assay type: cell-based, human; conditions: Homo sapiens
[29] = test system: A498; experiment: NCI-60 growth inhibition: A498 (Renal Cancer); assay type: cell-based, human; conditions: Homo sapiens
[30] = test system: SF-268; experiment: NCI-60 growth inhibition: SF-268 (CNS Cancer); assay type: cell-based, human; conditions: Homo sapiens
[31] = test system: MDA-MB-435; experiment: NCI-60 growth inhibition: MDA-MB-435 (Melanoma); assay type: cell-based, human; conditions: Homo sapiens
[32] = test system: SN12C; experiment: NCI-60 growth inhibition: SN12C (Renal Cancer); assay type: cell-based, human; conditions: Homo sapiens
[33] = test system: 786-0; experiment: NCI-60 growth inhibition: 786-0 (Renal Cancer); assay type: cell-based, human; conditions: Homo sapiens
[34] = test system: DU-145; experiment: NCI-60 growth inhibition: DU-145 (Prostate Cancer); assay type: cell-based, human; conditions: Homo sapiens
[35] = test system: OVCAR-3; experiment: NCI-60 growth inhibition: OVCAR-3 (Ovarian Cancer); assay type: cell-based, human; conditions: Homo sapiens
[36] = test system: SW-620; experiment: NCI-60 growth inhibition: SW-620 (Colon Cancer); assay type: cell-based, human; conditions: Homo sapiens
[37] = test system: SNB-19; experiment: NCI-60 growth inhibition: SNB-19 (CNS Cancer); assay type: cell-based, human; conditions: Homo sapiens
[38] = test system: HT29; experiment: NCI-60 growth inhibition: HT29 (Colon Cancer); assay type: cell-based, human; conditions: Homo sapiens, HT-29
[39] = test system: SF-539; experiment: NCI-60 growth inhibition: SF-539 (CNS Cancer); assay type: cell-based, human; conditions: Homo sapiens
[40] = test system: MOLT-4; experiment: NCI-60 growth inhibition: MOLT-4 (Leukemia); assay type: cell-based, human; conditions: Homo sapiens
[41] = test system: CCRF-CEM; experiment: NCI-60 growth inhibition: CCRF-CEM (Leukemia); assay type: cell-based, human; conditions: Homo sapiens
[42] = test system: HOP-92; experiment: NCI-60 growth inhibition: HOP-92 (Non-Small-Cell Lung Cancer); assay type: cell-based, human; conditions: Homo sapiens
[43] = test system: OVCAR-4; experiment: NCI-60 growth inhibition: OVCAR-4 (Ovarian Cancer); assay type: cell-based, human; conditions: Homo sapiens
[44] = test system: NCI-H522; experiment: NCI-60 growth inhibition: NCI-H522 (Non-Small-Cell Lung Cancer); conditions: Homo sapiens, NCI-H522
[45] = test system: ACHN; experiment: NCI-60 growth inhibition: ACHN (Renal Cancer); assay type: cell-based, human; conditions: Homo sapiens
[46] = test system: K-562; experiment: NCI-60 growth inhibition: K-562 (Leukemia); assay type: cell-based, human; conditions: Homo sapiens, K562
[47] = test system: OVCAR-5; experiment: NCI-60 growth inhibition: OVCAR-5 (Ovarian Cancer); assay type: cell-based, human; conditions: Homo sapiens
[48] = test system: IGROV1; experiment: NCI-60 growth inhibition: IGROV1 (Ovarian Cancer); assay type: cell-based, human; conditions: Homo sapiens, IGROV-1
[49] = test system: SK-MEL-2; experiment: NCI-60 growth inhibition: SK-MEL-2 (Melanoma); assay type: cell-based, human; conditions: Homo sapiens
[50] = test system: SH-SY5Y-APPSw cells; experiment: Thioflavin-T staining of amyloid-like aggregates in SH-SY5Y-APPSw cells; assay type: cell-based, human; conditions: neuronal cells (FIG. 9)
Method: Several TDZD-conjugated drugs (putative GSK-3 inhibitors) were evaluated for their ability to reduce accumulation of protein aggregates, and for protection against aggregation-associated end-points in the following model systems: (i.) SH-SY5Y-APPSw, a neuroblastoma cell line expressing the Swedish mutation of Amyloid Precursor Protein (APPSw), and thus predisposed to form β-amyloid deposits; (ii.) C. elegans strain CL4176, a model of Alzheimer-like amyloidopathy that can be induced to express human Aβ1-42 in muscle, or may express it at a lower level without induction; (iii.) C. elegans strain AM141, a model of Huntington-like polyglutamine aggregation that constitutively expresses Q40::YFP (a tract of 40 glutamines fused in-frame to yellow fluorescent protein) in muscle cells and forms aggregates progressively with adult aging. The TDZD analog PNR-962 (a putative GSK-3 inhibitor) and other related compounds (not shown) were protective in all aggregation assays.
First, the effects of TDZD analogues were tested on the human neuroblastoma cell line SH-SY5Y-APPSw, a model of Alzheimer-like amyloid aggregation expressing the “Sw” mutant form of Amyloid Precursor Protein, APP. These drugs all produced significant reductions in amyloid-like aggregates, by 30-50% as quantified by thioflavin-T staining intensity (data for PNR-962 are shown in FIG. 4). Modified TDZD-8 analogues PNR-962 and BSK-179 are more anti-aggregative than TDZD-8, lowering total amyloid-staining intensity by a further 14% (data not shown).
Following previously described experimental procedures (Liu, et al. (2005). S100B-induced microglial and neuronal IL-1 expression is mediated by cell type-specific transcription factors. Journal of Neurochemistry. 92(3): 546-553), SH-SY5Y-APPSw neuronal cells expressing an aggregation-prone double mutant of amyloid precursor protein (APPSw) were cultured in DMEM plus 10% (v/v) fetal bovine serum (FBS) at 37° C. Cells were suspended in trypsin/EDTA and rinsed in PBS prior to re-plating or harvesting. […] Human neuroblastoma cells were treated with PNR962, either simultaneous with sAPPα or beginning 1 h prior to sAPPα addition (pre-treatment) in order to ascertain the protective benefits of PNR962 on protein aggregation in human neuroblastoma cell lines. A similar experimental procedure was followed to examine the effect of treatment with these analogs on non-neuronal human cells, exposing human embryonic kidney cells (HEK) that express tau-like aggregates (found in AD-associated diseases) to 0.001, 0.01, and 1-μM doses of TDZD-8 and its analogues.
To observe the protective effects of the novel TDZD analogs on protein aggregation in SY5Y-APPSw cells, using DMEM medium containing 10% fetal calf serum in […], cells were cultured at 37′C for 26 hrs allowing cells to approximately double in number. After 48 h of cell incubation in the presence of specified concentrations of drug or vehicle, cells were fixed 15 min in formaldehyde (4% v/v), washed, and stained 20 min at ˜22° C. in a dark container with 0.1% w/v Thioflavin T mixed with DAPI (1 μg/ml; Life Technologies, Grand Island, N.Y., USA). […] The intensity of aggregate/thioflavin-T fluorescence per field was quantified via an Image J plug-in developed in-house, and normalized to the number of DAPI^+ nuclei counted per field, to obtain an average intensity of aggregates per cell for each treatment.

[51] = Ibuprofen-TDZD analogs (Table 3)

## C=C1C(=O)O[C@H]2[C@H]1CC/C(COC(=O)NCc1ccc(Cn3c(=O)sn(CCI)c3=O)cc1)=C\CC[C@@]1(C)O[C@@H]21 [BSK-187]
[1]
  GI50: 2400 nM
[2]
  GI50: 3790 nM
[3]
  GI50: 1250 nM
[4]
  GI50: 6420 nM
[5]
  GI50: 1610 nM
[6]
  GI50: 1650 nM
[7]
  GI50: 7290 nM
[8]
  GI50: 1770 nM
[9]
  GI50: 1910 nM
[10]
  GI50: 5370 nM
[11]
  GI50: 1710 nM
[12]
  GI50: 4670 nM
[13]
  GI50: 1760 nM
[14]
  GI50: 1320 nM
[15]
  GI50: 4550 nM
[16]
  GI50: 2060 nM
[17]
  GI50: 1690 nM
[18]
  GI50: 1980 nM
[19]; MMB-TDZD analogs (Table 2)
  LD50, 7AAD (μM) 24 h: 2.37 µM
  LD50, Alamar blue (μM) 24 h: 1.0 µM
  LD50, YOPRO (μM) 24 h: 1.21 µM
[20]
  GI50: 1980 nM
[21]
  GI50: 1860 nM
[22]
  GI50: 1910 nM
[23]
  GI50: 2240 nM
[24]
  GI50: 1820 nM
[25]
  GI50: 3460 nM
[26]
  GI50: 1680 nM
[27]
  GI50: 1750 nM
[28]
  GI50: 2110 nM
[29]
  GI50: 4440 nM
[30]
  GI50: 2410 nM
[31]
  GI50: 2450 nM
[32]
  GI50: 2160 nM
[33]
  GI50: 1820 nM
[34]
  GI50: 1820 nM
[35]
  GI50: 1640 nM
[36]
  GI50: 1660 nM
[37]
  GI50: 6880 nM
[38]
  GI50: 2100 nM
[39]
  GI50: 1720 nM
[40]
  GI50: 1350 nM
[41]
  GI50: 500 nM
[42]
  GI50: 1380 nM
[43]
  GI50: 2020 nM
[44]
  GI50: 1720 nM
[45]
  GI50: 1890 nM
[46]
  GI50: 650 nM
[47]
  GI50: 3280 nM
[48]
  GI50: 2080 nM
[49]
  GI50: 11700 nM

## CC(C)Cc1ccc(C(C)C(=O)NCc2ccc(Cn3c(=O)sn(CCCl)c3=O)cc2)cc1 (stereo not shown) [BSK-137]
[19]; [51]
  LD50, 7AAD (μM) 24 h: 3.39 µM
  LD50, Alamar blue (μM) 24 h: 7.00 µM
  LD50, YOPRO (μM) 24 h: 3.28 µM
[50]
  reduction of aggregate intensity (Thioflavin-T staining): 34%
